Measurements published in patent US11007250B2, “Methods and kits for treating pain” (Duke University, priority 2017, dated 2021).

How the values were obtained:
[1] = system: mice with LLC bone cancer; experiment: Bone cancer pain model, Lewis lung cancer (LLC) cells in tibia; assay type: in vivo, mouse; conditions: Nivolumab 10 mg/kg IV on day 0, 3, 7, 10, 14
Description: (B) Cancer pain, as measured by mechanical pain sensitivity (paw withdrawal threshold) in von Frey test. (C) Mechanical allodynia (paw withdrawal frequency to a subthreshold filament, 0.4 g) in von Frey test. (D) Cold allodynia (lifting and licking time) in acetone test. (E) Heat hyperalgesia (paw withdrawal latency) in Hargreaves test. (B-E) n=9-11 mice in each group; Two-way ANOVA with Bonferroni's hoc-test; *P<0.05, compared with baseline; #P<0.05, compared with Saline group.

[2] = system: small-diameter neurons of whole-mount DRG; experiment: Whole-cell patch clamp recordings in whole mount DRGs ex vivo; assay type: cell-based, mouse; conditions: WT whole mount DRG; sPD-1 30 ng/ml, Nivolumab 300 ng/ml
Experimental: Whole-cell patch clamp recordings in whole mount DRGs of mice ex vivo. L4-L5 DRGs were carefully removed 4 days after sham surgery or CCI surgery and placed in cold oxygenated ACSF. The connective tissue was gently removed under a microscope and the ganglia were digested with a mixture of 0.4 mg/mL trypsin (Sigma) and 1.0 mg/ml type-A collagenase (Sigma) for 30 min at 37° C. The intact ganglia were then incubated in ACSF oxygenated with 95% O2 and 5% CO2 at 28° C. for at least 1 h before transferring them to the recording chamber. DRG neurons were visualized with a 40× water-immersion objective using a BX51WI microscope (Olympus). Whole-cell current and voltage recordings were acquired with an Axon700B amplifier. Patch pipettes (4-7 MO) were pulled from borosilicate glass capillaries on P-97 puller. The recording chamber (300 μl) was continuously superfused (3-4 ml/min). Series resistance was compensated for (>80%), and leak subtraction was performed. The pipette solution contained (in mM): 140 KCl, 2 MgCl2, 10 Hepes, 2 Mg-ATP, pH 7.4. Osmolarity was adjusted to 290-300 mOsm. Data was acquired with a Digidata 1322A acquisition system (molecular devices) using pCLAMP 9.0 software. Signals were low-pass filtered at 5 kHz, sampled at 10 kHz and analyzed offline.

[3] = system: mice; experiment: Tail-flick and hot-plate tests of morphine antinociception; assay type: in vivo, mouse
Experimental: Tail-flick test. All animals were habituated to testing environment for at least 2 days before baseline testing. Mice were gently held by a hand with a terry glove and with tails exposed. The distal 3 cm of the tail was immersed into the 50° C. hot water. The tail-flick latency was the time required for a mouse to flick or remove its tail out of the water. A maximum cut-off value of 15 seconds was set to avoid thermal injury. Tail-flick latency was determined both before and after drug injection. Data are expressed as the maximum possible effect (MPE) calculated as MPE (%)=100×[(postdrug response baseline response)/(cutoff response−baseline response)]. The MPE (%) data from each animal were converted to area under the curve (AUC).
Hot-plate test. All animals were habituated to testing environment for at least 2 days before baseline testing. […] A maximum cut-off value of 40 seconds was set to avoid tissue injury. Data are expressed as the maximum possible effect (MPE) calculated as MPE (%)=100×[(postdrug response−baseline response)/(cutoff response−baseline response)]. The MPE (%) data from each animal were converted to area under the curve (AUC).

[4] = system: DRG neurons and sciatic nerve fibers; experiment: Nivolumab binding in mouse DRG and sciatic nerve sections
Experimental: FIG. 10 (Supp. FIG. 2). […] Human IgG included as a control. *P<0.05, vs. human IgG/PD-L1, repeated measures Two-Way ANOVA, n=4 mice/group. Arrows indicate drug injections. Human IgG or monoclonal antibody injected 30 min prior to injection of PD-L1. BL, baseline. […] Arrows indicate nerve fibers. Data are mean s.e.m.
Immunohistochemistry in mouse and human tissues and quantification. After appropriate survival times, mice were deeply anesthetized with isoflurane and perfused through the ascending aorta with PBS, followed by 4% paraformaldehyde. After the perfusion, the L4-L5 spinal cord segments, L4-L5 DRGs, sciatic nerves, and melanoma tissues were removed and postfixed in the same fixative overnight. Fresh human DRGs (L4-L5) of 4 non-diseased donors from NDRI (National Disease Research Interchange) (Xu, Z Z, et al. 2015) and the attached spinal nerves were immediately fixed upon delivery in fresh 4% paraformaldehyde overnight. Spinal cord, DRG, and nerve tissue sections (10 or 14 μm) and free-floating spinal cord and skin sections (30 μm) were cut in a cryostat. […] The stained sections were examined with a Nikon fluorescence microscope, and images were captured with a CCD Spot camera. […]

[5] = system: lamina 110 neurons in spinal cord slices; experiment: Patch clamp recordings of sEPSCs in spinal cord slices; assay type: cell-based, mouse; conditions: Nivolumab 300 ng/ml
[6] = system: naive mice; experiment: Basal pain in naive mice (von Frey test, spontaneous pain); assay type: in vivo, mouse; conditions: RMP1-14 5 μg, Nivolumab 10 μg
[7] = PD-L1 30 ng/ml, sPD-1 30 ng/ml perfusion, 3 h

Question: For “Nivolumab: FDA-approved fully humanized IgG4 monoclonal anti-PD-1 antibody, Bristol-Myers Squibb”, which “cancer pain days after each treatment” value [1] is on record?
Answer: sustained beneficial effects on cancer pain relief

Question: And the “firing rate of action potentials” value [2]?
Answer: increased the firing rate

Question: What about the “analgesic effect of morphine after Nivolumab” value ([3]; Nivolumab 10 mg/kg i.v. 30 min before morphine 10 mg/kg s.c.) of the same substance?
Answer: reduced analgesic effect

Question: And the “pain sensitivity, given with saline” value ([3]; Nivolumab 10 mg/kg i.v. 30 min before s.c. saline)?
Answer: greater sensitivity to pain

Question: And the “binding in Pd1 knockout mice” value ([4]; Pd1−/− mice)?
Answer: absent

Question: What about the “binding in wild-type (WT) mouse tissue” value ([4]; WT mice) of the same substance?
Answer: binding on DRG neurons and sciatic nerve fibers

Question: And the “effect on PD-L1's inhibition of sEPSC frequency” value ([5]; 3 h incubation)?
Answer: blocked

Question: What about the “amplitude of spontaneous EPSCs (sEPSCs)” value [5, 7] of the same substance?
Answer: not amplitude

Question: What about the “frequency of spontaneous EPSCs (sEPSCs)” value [5, 7] of the same substance?
Answer: increased sEPSC frequency

Question: What about the “effect on PD-L1's analgesic effects” value ([6]; antibody i.pl. 30 min prior to PD-L1 (5 μg, i.pl.)) of the same substance?
Answer: blocked

Question: What about the “duration of mechanical allodynia in naive mice” value ([6]; i.pl., sPD-1 5 μg) of the same substance?
Answer: 5 h

Question: What about the “mechanical allodynia in naive mice” value ([6]; i.pl., sPD-1 5 μg) of the same substance?
Answer: marked mechanical allodynia
